Results: patent publication US20260325520A1, “METHODS FOR TREATING OR PREVENTING NEUROENDOCRINE TUMR FORMATION USING CDC7 INHIBITORS” (Memorial Sloan-Kettering Cancer Center, priority 2022, published 2026)

What was measured:
Format in all cases: cell-based
[1] = test system: SCLC cell lines (control and CDC7 KO); assay: Viability of control and CDC7 CRISPR-Cas9 KO cell lines treated with simurosertib; settings: GI50 concentration
Description: FIG. 1A: CDC7 mRNA expression in cell lines derived from different tumor types. The data was obtained from CCLE through UCSC Xenabrowser portal (https://xenabrowser.net/) in December 2020. Lines indicate the median CDC7 mRNA expression in SCLC cell lines. FIG. 1B: CDC7 protein expression assessed by IHC in NSCLC (N=58) and SCLC (N=45) clinical samples. Protein expression is shown as IHC score. H-score medians and standard deviation are shown. FIG. 1C: Western blot showing CDC7 KO in H82 (SCLC-N) and H146 (SCLC-A) SCLC cell lines. Proliferation (FIG. 1D) and soft agar colony formation (FIG. 1E) assays in isogenic H82 and H146 cell lines with CDC7 KO. In FIG. 1D, lower line graphs correspond to CDC7 KO (sgCDC7). FIG. 1F: Ectopic overexpression of CDC7 in H69 (SCLC-A) and DMS114 (SCLC-Y) SCLC cell lines. Proliferation (FIG. 1G) and soft agar colony formation (FIG. 1H) assays in isogenic H69 and DMS114 cell lines with ectopic CDC7 overexpression. […] FIG. 1I: Bivariate correlation of CDC7 mRNA and protein expression with simurosertib or LY3143921 sensitivity (assessed as growth inhibition) in an array of SCLC cell lines. Correlation was calculated with Spearman's test. […]
(§1) Cytotoxic assays were performed as described in ^19. […] Viability was assessed with the CellTiter-Glo 2.0 Assay (Promega, G9242) as indicated by manufacturer.

[2] = test system: 22PC (PRAD) cells; assay: Viability of control and TP53/RB1-loss 22PC cells treated with simurosertib; settings: 0.5 μM; double TP53/RB1 loss versus control or single gene loss
Description: CDC7 mRNA (FIG. 3A) and protein (FIG. 3B) expression in lung tumor clinical specimens, categorized as control never transformed adenocarcinomas (LUAD), transforming adenocarcinomas (T-LUAD) and small cell carcinomas (T-SCLC) and control de novo small cell carcinomas (SCLC). For FIG. 3B, H-score medians and standard deviation are shown. FIG. 3C: CDC7 mRNA expression in PRAD tumors with or without NE features. Data from Abida et al., PNAS 2019. FIG. 3D: CDC7 protein expression in PRAD and NEPC clinical specimens, as assessed by IHC. H-score medians and standard deviation and representative images (FIG. 3E) are shown. […] FIG. 3G: In vivo treatment of Lx1042 (T-SCLC) and LuCAP49 (NEPC) PDXs was conducted to compare the efficacy of the combination of cisplatin and simurosertib versus that of cisplatin and etoposide. Student's t-test was performed to assess statistical significance (two-tailed, assuming heterogeneous value distribution) p-value legend: *<0.05, **<0.01, ***<0.001. FIG. 3H: CDC7 mRNA expression in adenocarcinoma clinical specimens, categorized by their TP53/RB1 status. Data obtained from LUAD TCGA (PanCancer), LUAD OncoSG (OncoSG, Nat Genetics 2020) and PRAD TCGA (PanCancer). […]
as §1

[3] = test system: LnCap (PRAD) cells; assay: Viability of control and TP53/RB1-loss LnCap cells treated with simurosertib; settings: 0.5 μM; double TP53/RB1 loss versus control
Description: FIG. 4A: CDC7 mRNA expression in adenocarcinoma clinical specimens, categorized by their TP53/RB1 status. Data obtained from LUAD TCGA (PanCancer), LUAD OncoSG (OncoSG, Nat Genetics 2020) and PRAD TCGA (PanCancer). FIG. 4B: Western blot showing CDC7 protein levels in isogenic H1563 (LUAD) and 22PC (PRAD) cell lines with or without induced loss of function of TP53 and/or RB1 (see methods). FIG. 4C: Plot showing a representative biological replicate of an experiment assessing viability of control and TP53/RB1-loss H1563, 22PC and LnCap (PRAD) cells treated with 0.5 μM simurosertib. Student's t-test was performed to assess statistical significance (two-tailed, assuming heterogeneous value distribution). p-value legend: *<0.05, **<0.01, ***<0.001.
TP53/RB1-deficient PRAD cell lines were generated as previously described^16. TP53/RB1-deficient LUAD cell lines were generated by lentiviral transduction of a construct expressing a dominant negative TP53 isoform and a short hairpin RNA against RB1, produced from the FU-CYW vector that was previously described^18 and kindly shared by Dr. Owen Witte.
Cytotoxic assays were performed as described in ^19. A total of 1,500 cells/well were seeded in 96-well plates and treated with the drugs/doses described for 96 hours. Viability was assessed with the CellTiter-Glo 2.0 Assay (Promega, G9242) as indicated by manufacturer.

For `Cc1n[nH]cc1-c1cc2nc([C@@H]3CC4CCN3CC4)[nH]c(=O)c2s1` [simurosertib], which “simurosertib sensitivity of CDC7 KO cells” value [1] is on record?
The value was “CDC7 KO rendered the cells resistant to simurosertib”.

And the simurosertib sensitivity [2]?
The simurosertib sensitivity was “increased simurosertib sensitivity”.

And the simurosertib sensitivity [3]?
Its simurosertib sensitivity is “increased simurosertib sensitivity”.
